Reference: ChEMBL document CHEMBL2346580, “Design, synthesis and SAR investigation of thienosultam derivatives as ADAMTS-5 (aggrecanase-2) inhibitors” (Bioorg Med Chem Lett, 2013)

What was measured:
[1] = target: 72 kDa type IV collagenase (Homo sapiens) (UniProt P08253); experiment: Inhibition of MMP2 (unknown origin)
[2] = target: T1, A disintegrin and metalloproteinase with thrombospondin motifs 5 (Homo sapiens) (UniProt Q9UNA0); experiment: Inhibition of ADAMTS5 (unknown origin) using QF-peptide containing an aggrecanase cleavage site by FRET assay
T1 sequence (whole entry): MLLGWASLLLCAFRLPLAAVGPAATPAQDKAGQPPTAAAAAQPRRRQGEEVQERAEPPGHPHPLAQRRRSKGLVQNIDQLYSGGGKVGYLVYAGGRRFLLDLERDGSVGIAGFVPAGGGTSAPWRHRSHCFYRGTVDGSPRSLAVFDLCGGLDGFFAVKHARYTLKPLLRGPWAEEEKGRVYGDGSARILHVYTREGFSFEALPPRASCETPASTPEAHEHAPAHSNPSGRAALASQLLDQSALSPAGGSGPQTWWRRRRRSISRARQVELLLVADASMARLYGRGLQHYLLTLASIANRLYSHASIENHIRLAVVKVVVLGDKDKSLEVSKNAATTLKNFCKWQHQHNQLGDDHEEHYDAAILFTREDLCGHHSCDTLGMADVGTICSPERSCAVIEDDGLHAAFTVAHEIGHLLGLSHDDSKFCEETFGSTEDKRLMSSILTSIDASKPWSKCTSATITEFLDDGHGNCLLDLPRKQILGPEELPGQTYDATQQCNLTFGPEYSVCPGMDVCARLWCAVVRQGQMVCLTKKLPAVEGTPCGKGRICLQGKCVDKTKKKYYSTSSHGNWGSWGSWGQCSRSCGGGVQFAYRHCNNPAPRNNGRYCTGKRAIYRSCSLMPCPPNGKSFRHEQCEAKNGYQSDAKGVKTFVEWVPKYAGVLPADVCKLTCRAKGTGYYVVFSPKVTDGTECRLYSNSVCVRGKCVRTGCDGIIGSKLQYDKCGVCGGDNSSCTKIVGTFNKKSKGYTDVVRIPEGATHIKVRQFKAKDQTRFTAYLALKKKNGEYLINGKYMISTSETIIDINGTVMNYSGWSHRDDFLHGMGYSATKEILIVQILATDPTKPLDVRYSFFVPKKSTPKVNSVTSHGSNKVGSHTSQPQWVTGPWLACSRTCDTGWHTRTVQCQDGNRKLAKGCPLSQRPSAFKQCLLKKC

[3] = organism: Homo sapiens; experiment: Selectivity ratio of inhibition of MMP2 (unknown origin) to ADAMTS5 (unknown origin)
[4] = target: Stromelysin-1 (Homo sapiens) (UniProt P08254); experiment: Inhibition of MMP3 (unknown origin)
Sequence of Stromelysin-1 (Homo sapiens) (P08254 100-477 limits assumed): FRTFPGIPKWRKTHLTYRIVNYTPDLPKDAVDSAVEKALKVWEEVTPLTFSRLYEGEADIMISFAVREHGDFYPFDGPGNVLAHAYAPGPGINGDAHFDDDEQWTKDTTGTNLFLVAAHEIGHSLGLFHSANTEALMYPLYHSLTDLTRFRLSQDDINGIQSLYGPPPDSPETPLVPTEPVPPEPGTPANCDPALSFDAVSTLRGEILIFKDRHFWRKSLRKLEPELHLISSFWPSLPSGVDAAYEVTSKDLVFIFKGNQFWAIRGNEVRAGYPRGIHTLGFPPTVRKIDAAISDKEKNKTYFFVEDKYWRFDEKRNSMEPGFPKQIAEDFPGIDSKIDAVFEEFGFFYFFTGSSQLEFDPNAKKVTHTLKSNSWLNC

[5] = target: T2, A disintegrin and metalloproteinase with thrombospondin motifs 4 (Homo sapiens) (UniProt O75173); experiment: Inhibition of ADAMTS4 (unknown origin)
T2 sequence (whole entry): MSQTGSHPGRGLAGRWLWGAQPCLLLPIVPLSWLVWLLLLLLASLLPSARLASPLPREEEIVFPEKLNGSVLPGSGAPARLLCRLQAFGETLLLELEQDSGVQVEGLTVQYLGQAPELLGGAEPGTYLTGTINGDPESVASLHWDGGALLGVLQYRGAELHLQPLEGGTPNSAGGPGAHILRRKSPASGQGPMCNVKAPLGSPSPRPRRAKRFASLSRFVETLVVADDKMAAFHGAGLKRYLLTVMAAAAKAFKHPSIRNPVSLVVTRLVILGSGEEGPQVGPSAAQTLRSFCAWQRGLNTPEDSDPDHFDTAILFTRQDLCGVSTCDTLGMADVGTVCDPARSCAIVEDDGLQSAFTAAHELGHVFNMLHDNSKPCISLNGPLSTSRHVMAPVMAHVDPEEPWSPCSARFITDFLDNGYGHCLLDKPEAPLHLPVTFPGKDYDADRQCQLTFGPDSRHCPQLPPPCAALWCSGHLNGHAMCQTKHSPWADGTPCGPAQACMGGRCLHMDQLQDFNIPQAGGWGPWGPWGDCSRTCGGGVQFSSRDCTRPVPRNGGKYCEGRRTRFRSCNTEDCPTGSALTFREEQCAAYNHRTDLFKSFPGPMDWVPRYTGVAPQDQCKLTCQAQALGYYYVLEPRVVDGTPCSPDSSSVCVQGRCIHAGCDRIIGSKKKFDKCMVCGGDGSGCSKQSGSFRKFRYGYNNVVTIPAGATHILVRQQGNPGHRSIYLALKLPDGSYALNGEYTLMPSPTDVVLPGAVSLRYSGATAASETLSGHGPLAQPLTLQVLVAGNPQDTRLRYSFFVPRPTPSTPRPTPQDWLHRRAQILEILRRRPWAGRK

[6] = target: Matrix metalloproteinase-14 (Homo sapiens) (UniProt P50281); experiment: Inhibition of MMP14 (unknown origin)
[7] = target: T2, A disintegrin and metalloproteinase with thrombospondin motifs 4 (Homo sapiens); experiment: Inhibition of ADAMTS4 (unknown origin) at 10 uM
[8] = target: T1, A disintegrin and metalloproteinase with thrombospondin motifs 5 (Homo sapiens); experiment: Inhibition of ADAMTS5 (unknown origin) using QF-peptide containing an aggrecanase cleavage site at 10 uM by FRET assay
[9] = Clearance in Sprague-Dawley rat at 1 mg/kg, iv and 5 mg/kg, po; format: ADME, organism-based; conditions: in vivo
[10] = (§1) Oral bioavailability in Sprague-Dawley rat at 5 mg/kg; format: ADME, organism-based; conditions: Sprague-Dawley, in vivo
[11] = Volume of distribution at steady state in Sprague-Dawley rat at 1 mg/kg, iv and 5 mg/kg, po; format: ADME, organism-based; conditions: in vivo, read-out: Vdss
[12] = Half life in Sprague-Dawley rat at 1 mg/kg, iv and 5 mg/kg, po; format: ADME, organism-based; conditions: in vivo
[13] = tested on: Rattus norvegicus; experiment: Cmax in Sprague-Dawley rat at 1 mg/kg, iv and 5 mg/kg, po; format: ADME, organism-based; conditions: in vivo
[14] = AUC (0 to infinity) in Sprague-Dawley rat at 1 mg/kg, iv and 5 mg/kg, po; format: ADME, organism-based; conditions: plasma
[15] = tested on: Rattus norvegicus; experiment: as §1; format: ADME, organism-based; conditions: in vivo

Sequence of 72 kDa type IV collagenase (Homo sapiens) (P08253 110-660 limits assumed): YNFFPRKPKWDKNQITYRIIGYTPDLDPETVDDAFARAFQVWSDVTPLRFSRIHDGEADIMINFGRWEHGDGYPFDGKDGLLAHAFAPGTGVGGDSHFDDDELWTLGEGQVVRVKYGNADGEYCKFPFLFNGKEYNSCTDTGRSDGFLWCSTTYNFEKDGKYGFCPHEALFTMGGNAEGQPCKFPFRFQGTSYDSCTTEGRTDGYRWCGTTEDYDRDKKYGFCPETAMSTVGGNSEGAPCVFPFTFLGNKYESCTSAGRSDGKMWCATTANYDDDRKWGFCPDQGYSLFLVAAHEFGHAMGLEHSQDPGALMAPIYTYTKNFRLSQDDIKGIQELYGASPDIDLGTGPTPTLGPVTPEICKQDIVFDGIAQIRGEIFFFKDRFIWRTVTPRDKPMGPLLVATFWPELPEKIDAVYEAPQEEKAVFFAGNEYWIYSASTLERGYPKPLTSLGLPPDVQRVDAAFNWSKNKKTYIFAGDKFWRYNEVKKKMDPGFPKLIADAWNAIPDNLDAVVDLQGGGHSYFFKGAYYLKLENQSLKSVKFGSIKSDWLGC

Structure (SMILES) | INH [1] [µM] | INH [2] [µM] | Ratio [3] | other results
CCC(C(=O)O)N1Cc2sc(-c3ccc(-c4cccnc4)cc3)cc2S1(=O)=O (racemic) | > 30 | > 10 |  | 
CCC(C(=O)O)N1Cc2sc(-c3ccc(-c4ccsc4)cc3)cc2S1(=O)=O (racemic) | > 30 | 2.3 | > 13 | 
CC(C)[C@H](NS(=O)(=O)c1ccc(-c2ccccc2)cc1)C(=O)O | 0.04 | 8.2 |  | INH [4]: 0.038 µM; INH [5]: 3 µM
CCC(C(=O)O)N1Cc2sc(-c3ccccc3)cc2S1(=O)=O (racemic) | 16 |  |  | INH [4]: 12 µM; INH [6]: > 30 µM; inhibition [7]: 1.7%; inhibition [8]: 3%
CCC(C(=O)O)N1Cc2sc(N3CCN(c4ccccc4)CC3)cc2S1(=O)=O (racemic) | > 30 |  |  | inhibition [8]: 9%
CCC(C(=O)O)N1Cc2sc(-c3ccn(Cc4ccccc4)n3)cc2S1(=O)=O (racemic) | > 30 |  |  | inhibition [8]: 43.2%
CCC(C(=O)NO)N1Cc2sc(-c3ccccc3)cc2S1(=O)=O (racemic) | 0.03 | 2.1 |  | INH [4]: 5.1 µM; INH [6]: 1.2 µM; INH [5]: 1.1 µM
CCC(C(=O)O)N1Cc2sc(-c3ccc(/C=C/c4ccccc4)cc3)cc2S1(=O)=O (racemic) | 3.9 | 1.4 | 2.79 | 
CCC(C(=O)O)N1Cc2sc(-c3ccc(-c4cccs4)cc3)cc2S1(=O)=O (racemic) | > 30 | 1.3 | > 23 | 
CCC(C(=O)O)N1Cc2sc(-c3ccc(-c4cnn(Cc5ccccc5)c4)cc3)cc2S1(=O)=O (racemic) | > 30 | 0.4 | > 75 | clearance [9]: 278 mL/min/kg; bioavailability [10]: 47%; Vd [11]: 0.33 L/kg; half-life [12]: 1.8 h; Cmax [13]: 3090 ng/mL; AUC(0-inf) [14]: 4730 ng·h/mL; INH [4]: > 30 µM; INH [6]: > 30 µM; INH [5]: 8 µM
CCC(C(=O)O)N1Cc2sc(-c3ccc(-c4ccc5cnn(C)c5c4)cc3)cc2S1(=O)=O (racemic) | 4 | 0.3 | 13.3 | 
CCC(C(=O)O)N1Cc2sc(C#CCC3CCCCC3)cc2S1(=O)=O (racemic) | > 30 | 8.9 | > 3.37 | 
CCC(C(=O)O)N1Cc2sc(-c3ccn(C#Cc4ccccc4)n3)cc2S1(=O)=O (racemic) | > 30 | 4 | > 7.5 | 
CCC(C(=O)O)N1Cc2sc(C#Cc3cc(C(F)(F)F)cc(C(F)(F)F)c3)cc2S1(=O)=O (racemic) | > 30 | 4.9 | > 6.12 | 
CCC(C(=O)O)N1Cc2sc(C#Cc3ccccn3)cc2S1(=O)=O (racemic) | > 30 | 9.3 | > 3.23 | 
CCC(C(=O)O)N1Cc2sc(-c3ccc(-c4cnn(C)c4)cc3)cc2S1(=O)=O (racemic) | > 30 | > 10 |  | 
CCC(C(=O)O)N1Cc2sc(C#Cc3ccc(-c4ccccc4)cc3)cc2S1(=O)=O (racemic) | > 30 | 1.5 | > 20 | 
CCC(C(=O)O)N1Cc2sc(-c3ccc(-c4ccccc4)cc3)cc2S1(=O)=O (racemic) | 1.8 | 2.1 | 0.78 | INH [4]: 1.2 µM; INH [6]: < 5.1 µM; inhibition [7]: 1.6%; INH [5]: 1.1 µM
CCC(C(=O)O)N1Cc2sc(C#Cc3ccc(N(C)C)cc3)cc2S1(=O)=O (racemic) | > 30 | 1.5 | > 20 | clearance [9]: 58.3 mL/min/kg; F [15]: 179%; Vd [11]: 0.34 L/kg; half-life [12]: 2.8 h; Cmax [13]: 29500 ng/mL; AUC(0-inf) [14]: 106000 ng·h/mL; INH [4]: > 30 µM; INH [6]: > 30 µM; INH [5]: > 10 µM
CCC(C(=O)NO)N1Cc2sc(-c3ccc(-c4ccccc4)cc3)cc2S1(=O)=O (racemic) | 0.3 |  |  | INH [4]: 20 µM; INH [6]: < 30 µM; inhibition [7]: 1.7%; inhibition [8]: 3%
CCC(C(=O)O)N1Cc2sc(-c3ccc(-c4ccc5ccn(C)c5c4)cc3)cc2S1(=O)=O (racemic) | 16.5 | 1 | 16.5 | 
CCC(C(=O)O)N1Cc2sc(-c3ccc(-c4ccc(N(C)C)nc4)cc3)cc2S1(=O)=O (racemic) | > 30 | 7 | > 4.5 | 
CCC(C(=O)O)N1Cc2sc(/C=C/c3ccc(C(F)(F)F)cc3)cc2S1(=O)=O (racemic) | 2 | 3.2 | 0.63 | 
CCC(C(=O)O)N1Cc2sc(-c3ccc(-c4ccc(N(C)Cc5ccccc5)nc4)cc3)cc2S1(=O)=O (racemic) | > 30 | 1 | > 30 | 
